{
  "source": "patent US6358698B1",
  "about": "(Acadia Pharmacueticals Inc., priority 1998, dated 2002)",
  "key": {"human 5-HT2C receptor": {"target": "T1, human 5-HT2C receptor (Homo sapiens, UniProt P28335)", "T1 construct": "expressed in transfected cells; host or cells: not restated for 5-HT2C; R-SAT as for 5-HT2A (NIH 3T3)", "T1 sequence (P28335 33-458)": "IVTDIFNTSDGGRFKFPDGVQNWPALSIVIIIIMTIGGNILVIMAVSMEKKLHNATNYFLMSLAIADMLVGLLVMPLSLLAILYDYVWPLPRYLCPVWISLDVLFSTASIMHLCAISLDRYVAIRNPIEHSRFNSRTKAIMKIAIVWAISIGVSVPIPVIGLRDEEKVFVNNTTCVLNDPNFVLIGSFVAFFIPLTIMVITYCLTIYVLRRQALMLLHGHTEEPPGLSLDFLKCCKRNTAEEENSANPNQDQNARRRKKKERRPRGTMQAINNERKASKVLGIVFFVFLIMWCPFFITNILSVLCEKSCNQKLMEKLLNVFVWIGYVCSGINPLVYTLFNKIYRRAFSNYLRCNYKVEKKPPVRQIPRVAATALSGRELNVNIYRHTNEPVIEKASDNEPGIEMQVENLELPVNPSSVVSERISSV", "experiment": "R-SAT functional assay, constitutively active wild type 5-HT2C receptor", "assay_type": "cell-based", "conditions": "for EC50: read-out: 5-HT2C Receptor Negative Log EC50 (inverse agonism) (converted); for 5-HT2C Receptor Negative Log EC50 (inverse agonism): Table 3, 50 ng per well receptor DNA, assayed as agonists and inverse agonists"}, "5-HT2A receptor": {"target": "T2, 5-HT2A receptor (Homo sapiens, UniProt P28223)", "T2 construct": "expressed in transfected cells; host or cells: NIH 3T3 (mouse fibroblast)", "T2 sequence (P28223 whole entry)": "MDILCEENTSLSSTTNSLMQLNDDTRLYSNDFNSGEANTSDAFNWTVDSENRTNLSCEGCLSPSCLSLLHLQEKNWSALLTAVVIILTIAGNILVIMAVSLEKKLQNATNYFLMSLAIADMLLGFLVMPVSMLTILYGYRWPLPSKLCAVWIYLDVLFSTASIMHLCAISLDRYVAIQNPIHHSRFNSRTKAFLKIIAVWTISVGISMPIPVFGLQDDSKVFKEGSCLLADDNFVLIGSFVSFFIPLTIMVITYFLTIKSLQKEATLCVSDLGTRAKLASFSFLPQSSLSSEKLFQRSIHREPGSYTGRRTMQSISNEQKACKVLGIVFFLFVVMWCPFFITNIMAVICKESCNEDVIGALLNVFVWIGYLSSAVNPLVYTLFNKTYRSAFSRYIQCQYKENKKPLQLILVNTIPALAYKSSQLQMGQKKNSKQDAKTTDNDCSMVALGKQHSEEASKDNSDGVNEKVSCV", "experiment": "R-SAT functional assay, constitutively active wild type 5-HT2A receptor in NIH 3T3 cells", "assay_type": "cell-based", "conditions": "for Negative LOG EC50 (inverse agonism, inhibition of constitutive activity): Table 2, molar negative log EC50, mean of three dose response experiments +/- standard error, 50 ng/well DNA"}, "[1]": {"conditions": "Table 3, 50 ng/well receptor DNA, read-out: 5-HT2A Receptor Negative Log EC50 (inverse agonism) (converted)"}, "[2]": {"conditions": "read-out: Negative LOG EC50 (inverse agonism, inhibition of constitutive activity) (converted)"}, "[3]": {"conditions": "compounds screened at 300-500 nM, 50 ng/well receptor DNA, inhibition from basal, referenced to ritanserin (90-100%), mean of duplicates"}, "[4]": {"conditions": "Table 3, 50 ng/well receptor DNA"}, "[5]": {"conditions": "compounds screened at 300-500 nM, 50 ng/well receptor DNA, […], mean of duplicates"}},
  "note": "Like-named read-outs stand apart in the source and are kept apart here.",
  "data": [
    {"smiles": "OCCN1CCN([C@@H]2C[C@@H](c3ccc(F)cc3)c3ccc(C(F)(F)F)cc32)CC1", "note": "(racemic) [Tefludazine]", "values": [
      {"measurement": "EC50", "setting": "human 5-HT2C receptor", "result": 0.00525, "unit": "µM"},
      {"measurement": "EC50", "setting": "5-HT2A receptor; [1]", "result": 0.000955, "unit": "µM"},
      {"measurement": "EC50", "setting": "5-HT2A receptor; [2]", "result": 0.000955, "unit": "µM"}
    ]},
    {"smiles": "N[C@@H](Cc1c[nH]c2ccc(O)cc12)C(=O)O", "note": "[5-hydroxy-Ltryptophan]", "values": [
      {"measurement": "% INHIBITION (screen for inverse agonism at 5-HT2A receptors)", "setting": "5-HT2A receptor; [3]", "result": 53, "unit": "%"}
    ]},
    {"smiles": "CCNC(=O)N1CCN(CCCC(c2ccc(F)cc2)c2ccc(F)cc2)CC1", "note": "[Amperozide]", "values": [
      {"measurement": "5-HT2C Receptor Negative Log EC50 (inverse agonism)", "setting": "human 5-HT2C receptor", "result": "No Intrinsic"},
      {"measurement": "EC50", "setting": "5-HT2A receptor; [1]", "result": 0.0158, "unit": "µM"}
    ]},
    {"smiles": "O=C(CCCN1CCC(O)(c2ccc(Br)cc2)CC1)c1ccc(F)cc1", "note": "[Bromperidol]", "values": [
      {"measurement": "5-HT2C Receptor Negative Log EC50 (inverse agonism)", "setting": "human 5-HT2C receptor", "result": "No Intrinsic"}
    ]},
    {"smiles": "OCCN1CCN(CC/C=C2/c3ccccc3Sc3ccc(C(F)(F)F)cc32)CC1", "note": "[CIS-FLUPENTIXOL]", "values": [
      {"measurement": "5-HT2C Receptor Negative Log EC50 (inverse agonism)", "setting": "human 5-HT2C receptor", "result": "No Intrinsic"},
      {"measurement": "Negative LOG EC50 (inverse agonism, inhibition of constitutive activity)", "setting": "5-HT2A receptor", "result": "8.04 +/− 0.10"},
      {"measurement": "5-HT2A Receptor Negative Log EC50 (inverse agonism)", "setting": "5-HT2A receptor; [4]", "result": "8.04 +/− 0.10"},
      {"measurement": "% INHIBITION (screen for inverse agonism at 5-HT2A receptors)", "setting": "5-HT2A receptor; [5]", "result": 45, "unit": "%"}
    ]},
    {"smiles": "CCN(CC)CCCN1c2ccccc2Sc2ccc(Cl)cc21", "note": "[Chlorproethizene]", "values": [
      {"measurement": "5-HT2C Receptor Negative Log EC50 (inverse agonism)", "setting": "human 5-HT2C receptor", "result": "<5.0"},
      {"measurement": "5-HT2A Receptor Negative Log EC50 (inverse agonism)", "setting": "5-HT2A receptor; [4]", "result": "7.70 +/− 0.33"}
    ]},
    {"smiles": "CN1CCN(C2=Nc3ccccc3Sc3ccc(Cl)cc32)CC1", "note": "[Clothiapine]", "values": [
      {"measurement": "EC50", "setting": "human 5-HT2C receptor", "result": 0.479, "unit": "µM"},
      {"measurement": "EC50", "setting": "5-HT2A receptor; [1]", "result": 0.00282, "unit": "µM"}
    ]},
    {"smiles": "CN1CCN(C2=Nc3ccccc3Oc3ccc(Cl)cc32)CC1", "note": "[LOXAPINE]", "values": [
      {"measurement": "EC50", "setting": "human 5-HT2C receptor", "result": 0.501, "unit": "µM"}
    ]},
    {"smiles": "CSc1ccc2c(c1)C(N1CCN(C)CC1)Cc1ccccc1S2", "note": "(centres unmarked) [METHIOTHEPIN]", "values": [
      {"measurement": "% INHIBITION (screen for inverse agonism at 5-HT2A receptors)", "setting": "5-HT2A receptor", "result": 79, "unit": "%"}
    ]},
    {"smiles": "CC1CCN(CCCC(=O)c2ccc(F)cc2)CC1", "note": "[Melperone]", "values": [
      {"measurement": "5-HT2C Receptor Negative Log EC50 (inverse agonism)", "setting": "human 5-HT2C receptor", "result": "No Intrinsic"}
    ]},
    {"smiles": "CN1CCCCC1CCN1c2ccccc2Sc2ccc([S+](C)[O-])cc21", "note": "(centres unmarked) [Mesioridazine]", "values": [
      {"measurement": "5-HT2C Receptor Negative Log EC50 (inverse agonism)", "setting": "human 5-HT2C receptor", "result": "No Intrinsic"},
      {"measurement": "5-HT2A Receptor Negative Log EC50 (inverse agonism)", "setting": "5-HT2A receptor; [4]", "result": "7.00 +/− 0.30"}
    ]},
    {"smiles": "Cc1ccc(C2(O)CCN(CCCC(=O)c3ccc(F)cc3)CC2)cc1", "note": "[Moperone]", "values": [
      {"measurement": "5-HT2C Receptor Negative Log EC50 (inverse agonism)", "setting": "human 5-HT2C receptor", "result": "No Intrinsic"}
    ]},
    {"smiles": "CN1CCN(C2Cc3ccccc3Sc3ccc(Cl)cc32)CC1.O=C(O)/C=C\\C(=O)O", "note": "(centres unmarked) [OCTOCLOTHEPIN]", "values": [
      {"measurement": "5-HT2A Receptor Negative Log EC50 (inverse agonism)", "setting": "5-HT2A receptor; [4]", "result": "9.74 +/− 0.98"},
      {"measurement": "% INHIBITION (screen for inverse agonism at 5-HT2A receptors)", "setting": "5-HT2A receptor; [5]", "result": 76, "unit": "%"}
    ]},
    {"smiles": "Cc1nc2ccccn2c(=O)c1CCN1CCC(C(=O)c2ccc(F)cc2)CC1", "note": "[PIRENPIRONE]", "values": [
      {"measurement": "% INHIBITION (screen for inverse agonism at 5-HT2A receptors)", "setting": "5-HT2A receptor; [3]", "result": 92, "unit": "%"}
    ]},
    {"smiles": "CN1CCN(C2=Nc3ccccc3Cc3ccccc32)CC1", "note": "[Perlapine]", "values": [
      {"measurement": "EC50", "setting": "human 5-HT2C receptor", "result": 1.29, "unit": "µM"},
      {"measurement": "EC50", "setting": "5-HT2A receptor; [1]", "result": 0.0302, "unit": "µM"}
    ]},
    {"smiles": "CN(C)CCCN1c2ccccc2Sc2ccccc21", "note": "[Promazine]", "values": [
      {"measurement": "5-HT2C Receptor Negative Log EC50 (inverse agonism)", "setting": "human 5-HT2C receptor", "result": "Agonist"}
    ]},
    {"smiles": "CN(C)CCCN1c2ccccc2Sc2cccnc21", "note": "[Prothypendyl]", "values": [
      {"measurement": "5-HT2C Receptor Negative Log EC50 (inverse agonism)", "setting": "human 5-HT2C receptor", "result": "Agonist"},
      {"measurement": "5-HT2A Receptor Negative Log EC50 (inverse agonism)", "setting": "5-HT2A receptor; [4]", "result": "6.60 +/− 0.44"}
    ]},
    {"smiles": "Cc1nc2sccn2c(=O)c1CCN1CCC(=C(c2ccc(F)cc2)c2ccc(F)cc2)CC1", "note": "[RITANSERIN]", "values": [
      {"measurement": "Functional character at 5-HT2A receptor (inhibits signaling below baseline)", "setting": "5-HT2A receptor; PSI vector expression, in words", "result": "inverse agonist"}
    ]},
    {"smiles": "O=C(CCCN1CCC2(CC1)C(=O)NCN2c1ccccc1)c1ccc(F)cc1", "note": "[SPIPERONE]", "values": [
      {"measurement": "5-HT2C Receptor Negative Log EC50 (inverse agonism)", "setting": "human 5-HT2C receptor", "result": "No Intrinsic"}
    ]},
    {"smiles": "CCN1CCCC1CNC(=O)c1cc(S(N)(=O)=O)ccc1OC", "note": "(centres unmarked) [Sulpiride]", "values": [
      {"measurement": "5-HT2C Receptor Negative Log EC50 (inverse agonism)", "setting": "human 5-HT2C receptor", "result": "No Intrinsic"}
    ]},
    {"smiles": "O=C(CCCN1CCC(O)(c2cccc(C(F)(F)F)c2)CC1)c1ccc(F)cc1", "note": "[TRIFLUPERIDOL]", "values": [
      {"measurement": "EC50", "setting": "human 5-HT2C receptor", "result": "> 10", "unit": "µM"},
      {"measurement": "EC50", "setting": "5-HT2A receptor; [1]", "result": 0.0257, "unit": "µM"},
      {"measurement": "EC50", "setting": "5-HT2A receptor; [2]", "result": 0.0257, "unit": "µM"}
    ]},
    {"smiles": "CN1CCN(CC/C=C2/c3ccccc3Sc3ccc(S(=O)(=O)N(C)C)cc32)CC1", "note": "[Thiothixene]", "values": [
      {"measurement": "5-HT2C Receptor Negative Log EC50 (inverse agonism)", "setting": "human 5-HT2C receptor", "result": "No Intrinsic"}
    ]},
    {"smiles": "O=C1CC2(CCCC2)CC(=O)N1CCCCN1CCN(c2nsc3ccccc23)CC1", "note": "[Tiospirone]", "values": [
      {"measurement": "EC50", "setting": "human 5-HT2C receptor", "result": 0.513, "unit": "µM"},
      {"measurement": "EC50", "setting": "5-HT2A receptor; [1]", "result": 0.00182, "unit": "µM"}
    ]},
    {"smiles": "OCCN1CCN(CC/C=C2\\c3ccccc3Sc3ccc(C(F)(F)F)cc32)CC1", "note": "[Trans-Flupentixol]", "values": [
      {"measurement": "5-HT2C Receptor Negative Log EC50 (inverse agonism)", "setting": "human 5-HT2C receptor", "result": "5.55 +/− 0.37"},
      {"measurement": "Negative LOG EC50 (inverse agonism, inhibition of constitutive activity)", "setting": "5-HT2A receptor", "result": "6.77 +/− 0.21"},
      {"measurement": "5-HT2A Receptor Negative Log EC50 (inverse agonism)", "setting": "5-HT2A receptor; [4]", "result": "6.77 +/− 0.21"}
    ]}
  ]
}
